Assay results from PubChem BioAssay AID1963985 (Molecular Pharmacology Branch, DTP, NCI, 2024).
pIC50: −log10 of the molar value.

Test system: 252836-082-R-J2-PDC tumor spheroids, viability
Assay: Anticancer human tumor 252836-082-R-J2-PDC patient-derived head and neck squamous cell carcinoma cell line growth inhibition [PI3K]
Conditions: spheroids with HUVEC and MSC; for pIC50: curve of first compound; for viability, T/C: stronger effect = lower value; active = viability on the fitted dose curve at most 10% of control; inactive = the rest
Description: Combinatorial screen of targeted agents with the PI3K inhibitors inavolisib, alpelisib, duvelisib, and copanlisib in multi-cell type tumor spheroids
A high-throughput screen of multi-cell type tumor spheroids was designed to identify active combinations of targeted small molecules and PI3K pathway inhibitors. Complex spheroids include a stromal component modeled by human endothelial cells (HUVEC) and fibroblasts modeled by human mesenchymal stem cells (MSCs). The concentration ranges selected for each drug and investigational agent were based upon clinically achievable concentrations if the clinical Cmax of the agent was known.
Compounds. The drugs and investigational agents: inavolisib (NSC800729), alpelisib (NSC765974), duvelisib (NSC772469), copanlisib (NSC816437), ipatasertib (NSC767898), afuresertib (NSC778305), talazoparib (NSC767125), sapanisertib (NSC764658), selumetinib (NSC741078), tovorafenib (DAY101, NSC766906), vemurafenib (NSC761431), ravoxertinib (NSC781343), sotorasib (NSC818433), MRTX1133 (NSC 836407), abemaciclib (NSC 768073), palbociclib (NSC758247), venetoclax (NSC 766270), SY5609 (NSC837396), enzalutamide (NSC755605), and darolutamide (NSC825331), were obtained from the National Cancer Institute (NCI) Developmental Therapeutics Program Chemical Repository. The FDA-approved anticancer drug set is available from the NCI Developmental Therapeutics Program. […] The stock solutions were prepared in dimethyl sulfoxide (DMSO, Sigma-Aldrich, St. Louis, MO, cat. D2650) at 800-fold the tested concentration and stored at -70 degrees C prior to their use. All drugs and investigational agents were tested over a range starting from a high concentration at or near the clinical Cmax and decreasing in half-log increments. If the clinical Cmax for an agent had not been determined, the highest concentration tested was 10 microM.
Cell Culture. All cells were maintained in an incubator at 37 degrees C and 5% CO2 with 95% humidity. The PDC lines were cultured according to standard operating procedures established by the NCI PDMR (https://pdmr.cancer.gov/sops/default.htm). All PDCs were thawed and cultured in Matrigel-coated flasks prepared with a working solution of 1X Ham's F-12 nutrient mix, without supplementation (Invitrogen, Waltham, MA, cat. 11765054), 100 U/mL penicillin-streptomycin (Invitrogen, cat. 15140122), and 2.5% Matrigel (Corning Inc., Corning, NY, cat. 354248) for the first three passages. The 354836-022-R-J1-PDC, 475296-252-R-J1-PDC, and 997726-040-R-J2-PDC lines were cultured in 6A media, which includes advanced DMEM/F-12 (Thermo Fisher Scientific, cat. 12634028), 10 mM HEPES (Thermo Fisher Scientific, cat. 15630080), 1X GlutaMAX supplement (Thermo Fisher Scientific, cat. 35050061), 0.1 mg/mL primocin (InvivoGen, San Diego, CA, cat. ant-pm-2), 10% defined fetal bovine serum, heat inactivated (HyClone Laboratories Inc., Logan, UT, cat. SH30070.03HI), 50% L-WRN conditioned media (ATCC, cat. CRL-3276), 1.25 mM N-Acetyl-L-cysteine (Sigma-Aldrich, cat. A9165), 10 mM nicotinamide (Sigma-Aldrich, cat. N0636), 1X B-27 supplement (Thermo Fisher Scientific, cat. 17504044), 1X N-2 supplement (Thermo Fisher Scientific, cat. 17502048), and 10 microM Y-27632 dihydrochloride (Tocris Bioscience, Bristol, United Kingdom, cat. 1254). The 624824-186-R-J2-PDC line was cultured in 6C/Colon 1B media, which includes all 6A media components plus 50 ng/mL human EGF recombinant protein (Thermo Fisher Scientific, cat. PHG0311). […]
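Also: spheroids exposed to agents for seven days before readout.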
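For viability, T/C in this document: percent of vehicle DMSO control viability so 100% = untreated growth.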

CNC(=O)c1ccc(N2C(=S)N(c3ccc(C#N)c(C(F)(F)F)c3)C(=O)C2(C)C)cc1F + CC(Nc1ccc2c(c1)OCCn1cc(N3C(=O)OCC3C(F)F)nc1-2)C(N)=O
< 5.00: pIC50 (second compound 0.00316 µM) | pIC50 (second compound 0.01 µM) | pIC50 (second compound 0.0316 µM) | pIC50 (second compound 0.1 µM) | pIC50 (second compound 0.316 µM)
> 7.50: pIC50 (second compound 1 µM)
inactive: viability, T/C (second compound 0.00316 µM, first compound 0.0316 µM) 97% | viability, T/C (second compound 0.00316 µM, first compound 0.1 µM) 84.2% | viability, T/C (second compound 0.00316 µM, first compound 0.316 µM) 92.5% | viability, T/C (second compound 0.00316 µM, first compound 1 µM) 91.6% | viability, T/C (second compound 0.00316 µM, first compound 3.16 µM) 102% | viability, T/C (second compound 0.00316 µM, first compound 10 µM) 84.1% | viability, T/C (second compound 0.01 µM, first compound 0.0316 µM) 96.5% | viability, T/C (second compound 0.01 µM, first compound 0.1 µM) 99.9% | viability, T/C (second compound 0.01 µM, first compound 0.316 µM) 82% | viability, T/C (second compound 0.01 µM, first compound 1 µM) 89.1% | viability, T/C (second compound 0.01 µM, first compound 3.16 µM) 103% | viability, T/C (second compound 0.01 µM, first compound 10 µM) 98% | viability, T/C (second compound 0.0316 µM, first compound 0.0316 µM) 90.8% | viability, T/C (second compound 0.0316 µM, first compound 0.1 µM) 81.7% | viability, T/C (second compound 0.0316 µM, first compound 0.316 µM) 80.2% | viability, T/C (second compound 0.0316 µM, first compound 1 µM) 77.1% | viability, T/C (second compound 0.0316 µM, first compound 3.16 µM) 75.1% | viability, T/C (second compound 0.0316 µM, first compound 10 µM) 78.9% | viability, T/C (second compound 0.1 µM, first compound 0.0316 µM) 68.9% | viability, T/C (second compound 0.1 µM, first compound 0.1 µM) 69.5% | viability, T/C (second compound 0.1 µM, first compound 0.316 µM) 73.7% | viability, T/C (second compound 0.1 µM, first compound 1 µM) 66% | viability, T/C (second compound 0.1 µM, first compound 3.16 µM) 61.5% | viability, T/C (second compound 0.1 µM, first compound 10 µM) 67.9% | viability, T/C (second compound 0.316 µM, first compound 0.0316 µM) 55.4% | viability, T/C (second compound 0.316 µM, first compound 0.1 µM) 58.3% | viability, T/C (second compound 0.316 µM, first compound 0.316 µM) 53% | viability, T/C (second compound 0.316 µM, first compound 1 µM) 51.9% | viability, T/C (second compound 0.316 µM, first compound 3.16 µM) 61.9% | viability, T/C (second compound 0.316 µM, first compound 10 µM) 52.3% | viability, T/C (second compound 1 µM, first compound 0.0316 µM) 46.3% | viability, T/C (second compound 1 µM, first compound 0.1 µM) 44% | viability, T/C (second compound 1 µM, first compound 0.316 µM) 43.2% | viability, T/C (second compound 1 µM, first compound 1 µM) 50.5% | viability, T/C (second compound 1 µM, first compound 3.16 µM) 51.4% | viability, T/C (second compound 1 µM, first compound 10 µM) 45.8%
